Measurements: publication PMC9586930, “Molecular insights into the distinct signaling duration for the peptide-induced PTH1R activation” (Nature Communications, 2022)
Substitutions are numbered along the chain they refer to.

Tests used:
Type in all cases: cell-based
Conditions in all cases: for ΔpEC50±SEM: relative to WT, n = 3 in triplicate; for ΔpEC50±SEM / Span±SEM: mean ± SEM; for Span±SEM: window between maximal response (Emax) and vehicle, n = 3
[1] = target: T1, WT PTH1R (Homo sapiens, UniProt Q03431); test: cAMP accumulation assay (GloSensor), wild-type PTH1R
T1 construct: a flag-tag was fused to the N terminal of full-length PTH1R (WT or mutant); expressed in transfected cells; host or cells: HEK293T
T1 sequence (Q03431 27-593): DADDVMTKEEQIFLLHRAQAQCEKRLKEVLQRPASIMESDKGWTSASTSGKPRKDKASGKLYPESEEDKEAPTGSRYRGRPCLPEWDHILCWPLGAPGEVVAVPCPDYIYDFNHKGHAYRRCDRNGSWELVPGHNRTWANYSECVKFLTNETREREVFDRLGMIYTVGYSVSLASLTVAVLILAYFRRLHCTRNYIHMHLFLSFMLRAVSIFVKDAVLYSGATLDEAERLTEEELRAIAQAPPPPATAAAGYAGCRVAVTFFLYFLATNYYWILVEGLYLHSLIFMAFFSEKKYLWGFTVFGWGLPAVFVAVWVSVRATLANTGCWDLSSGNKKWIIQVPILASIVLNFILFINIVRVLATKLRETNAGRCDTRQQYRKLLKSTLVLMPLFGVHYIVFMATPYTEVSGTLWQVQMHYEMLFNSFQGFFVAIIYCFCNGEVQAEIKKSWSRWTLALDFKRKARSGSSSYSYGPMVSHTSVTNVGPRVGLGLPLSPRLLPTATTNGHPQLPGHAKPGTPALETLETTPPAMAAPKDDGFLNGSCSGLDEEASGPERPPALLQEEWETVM
Description: (§1) Human embryonic kidney 293 T (HEK293T, ATCC: CRL-1573) cells were transfected with a plasmid mixture consisting of pcDNA3.1-flag-PTH1R (WT or mutants) and the cAMP biosensor GloSensor-22F (Promega) at a ratio of 2:1 (see Supplementary Table 7 for a list of primers used in this study). After 24 h, transfected cells were plated onto a 384-well plate, which was treated with cell adherent reagent (Applygen) in advance. After another 12 h, cells were treated with Hank’s balanced salt solution for starvation and then incubated in CO2-independent media containing 4% GloSensor cAMP Reagent (Promega) at a volume of 5 μl per well and incubated for 20 min at RT before measurements for baseline luminescence (Spark Multimode microplate reader, TECAN). Next, test ligands were added at different concentrations from 10^−6 to 10^−13 M before second measurement. Finally, data were normalized to 100% of the maximal PTH (1-34) response for WT PTH1R using a sigmoidal dose-response in GraphPad Prism.
(§2) Statistical analyses were performed on at least three individual datasets and analysed using GraphPad Prism software. Bars represent differences in the calculated agonist potency (pEC50) and maximum agonist response (Emax) for each mutant relative to the WT receptor. Data are mean± s.e.m. from at least three independent experiments, performed in triplicates. ns, not significant, ^nsP > 0.01; ^*P < 0.01; ^**P < 0.001; ^***P < 0.0001 (one-way analysis of variance (ANOVA) followed by Dunnett’s test, compared with the response of the WT). For dose-response experiments, data were normalized and analyzed using nonlinear curve fitting for the log (agonist) versus response (three parameters) curves.

[2] = target: T2, PTH1R E180A mutant (Homo sapiens, UniProt Q03431, E180A); test: cAMP accumulation assay (GloSensor), PTH1R E180A
T2 construct: a flag-tag was fused to the N terminal of full-length PTH1R (WT or mutant); expressed in transfected cells; host or cells: HEK293T
T2 sequence (Q03431 27-593 E180A): T1 sequence (Q03431 27-593) with E154A
Description: as §1, §2

[3] = target: T3, PTH1R Q440A mutant (Homo sapiens, UniProt Q03431, Q440A); test: cAMP accumulation assay (GloSensor), PTH1R Q440A
T3 construct: a flag-tag was fused to the N terminal of full-length PTH1R (WT or mutant); expressed in transfected cells; host or cells: HEK293T
T3 sequence (Q03431 27-593 Q440A): T1 sequence (Q03431 27-593) with Q414A
Description: as §1, §2

Row | Substance | span (from the WT) ([1]; PTH1R WT, replicate 1) | ΔpEC50 (from the WT) ([1]; PTH1R WT, replicate 1) | span (from the WT) ([1]; PTH1R WT, replicate 2) | ΔpEC50 (from the WT) ([1]; PTH1R WT, replicate 2) | span (from the WT) ([1]; PTH1R WT, replicate 3) | ΔpEC50 (from the WT) ([1]; PTH1R WT, replicate 3) | ΔpEC50±SEM [1] | ΔpEC50 (from the WT) ([1]; replicate 1) | ΔpEC50 (from the WT) ([1]; replicate 2) | ΔpEC50 (from the WT) ([1]; replicate 3) | Span±SEM [1] | span (from the WT) ([2]; PTH1R E1801.32A, replicate 1) | ΔpEC50 (from the WT) ([2]; PTH1R E1801.32A, replicate 1) | span (from the WT) ([2]; PTH1R E1801.32A, replicate 2) | ΔpEC50 (from the WT) ([2]; PTH1R E1801.32A, replicate 2) | span (from the WT) ([2]; PTH1R E1801.32A, replicate 3) | ΔpEC50 (from the WT) ([2]; PTH1R E1801.32A, replicate 3) | ΔpEC50±SEM [2] | ΔpEC50 (from the WT) ([2]; replicate 1) | ΔpEC50 (from the WT) ([2]; replicate 2) | further results
1 | H-AVAEIQLMHQRAKWIQDARRRAFLHKLIAEIHTAEI-OH [LA-PTH, long-acting PTH analog, modified PTH/PTHrP hybrid] | 106.8 | 0 | 118.8 | 0 | 116.4 | 0 | 0 | 0 | 0 | 0 | 114.00±3.67 | 111 | -0.03 | 162.5 | 0.025 | 202.3 | 0.095 | 0.03±0.04 | -0.03 | 0.025 | ΔpEC50 (from the WT) ([2]; replicate 3): 0.095; Span±SEM [2]: 158.60±26.43; span (from the WT) ([3]; PTH1R Q4407.38A, replicate 1): 337.5; ΔpEC50 (from the WT) ([3]; PTH1R Q4407.38A, replicate 1): -0.045; span (from the WT) ([3]; PTH1R Q4407.38A, replicate 2): 279.8; ΔpEC50 (from the WT) ([3]; PTH1R Q4407.38A, replicate 2): -0.009; span (from the WT) ([3]; PTH1R Q4407.38A, replicate 3): 250.7; ΔpEC50 (from the WT) ([3]; PTH1R Q4407.38A, replicate 3): 0.015; ΔpEC50±SEM [3]: -0.01±0.02; ΔpEC50 (from the WT) ([3]; replicate 1): -0.045; ΔpEC50 (from the WT) ([3]; replicate 2): -0.009; ΔpEC50 (from the WT) ([3]; replicate 3): 0.015; Span±SEM [3]: 289.33±25.51
2 | H-AVSEHQLLHDKGKSIQDLRRRELLEKLL-{Aib}-KLHTA-NH2 [ABL, Abaloparatide, an analog of PTHrP, short-acting PTH1R agonist] | 115.9 | 0 | 122.2 | 0 | 127.3 | 0 | 0 | 0 | 0 | 0 | 121.80±3.30 | 108.1 | -0.513 | 146.6 | -0.61 | 148 | -0.513 | -0.55±0.03 | -0.513 | -0.61 | ΔpEC50 (from the WT) ([2]; replicate 3): -0.513; Span±SEM [2]: 134.23±13.07; span (from the WT) ([3]; PTH1R Q4407.38A, replicate 1): 252.6; ΔpEC50 (from the WT) ([3]; PTH1R Q4407.38A, replicate 1): -1.026; span (from the WT) ([3]; PTH1R Q4407.38A, replicate 2): 278.7; ΔpEC50 (from the WT) ([3]; PTH1R Q4407.38A, replicate 2): -0.991; span (from the WT) ([3]; PTH1R Q4407.38A, replicate 3): 338; ΔpEC50 (from the WT) ([3]; PTH1R Q4407.38A, replicate 3): -1.125; ΔpEC50±SEM [3]: -1.05±0.04; ΔpEC50 (from the WT) ([3]; replicate 1): -1.026; ΔpEC50 (from the WT) ([3]; replicate 2): -0.991; ΔpEC50 (from the WT) ([3]; replicate 3): -1.125; Span±SEM [3]: 289.77±25.27
3 | H-SVSEIQLMHNLGKHLNSMERVEWLRKKLQDVHNF-OH [PTH, Teriparatide, human PTH 1-34, long-acting peptide agonist of PTH1R] | 125.1 | 0 | 136.6 | 0 | 114.9 | 0 | 0 | 0 | 0 | 0 | 125.53±6.27 | 108.2 | -0.151 | 115.5 | -0.207 | 203.5 | 0.036 | -0.11±0.07 | -0.151 | -0.207 | Emax ([1]; HEK293T cells, from curve fitting dose-response data): 103.1 luminescence counts per 500ms; ΔpEC50 (from the WT) ([2]; replicate 3): 0.036; Span±SEM [2]: 193.57±39.96; span (from the WT) ([3]; PTH1R Q4407.38A, replicate 1): 372.2; ΔpEC50 (from the WT) ([3]; PTH1R Q4407.38A, replicate 1): -0.177; span (from the WT) ([3]; PTH1R Q4407.38A, replicate 2): 273.2; ΔpEC50 (from the WT) ([3]; PTH1R Q4407.38A, replicate 2): -0.116; span (from the WT) ([3]; PTH1R Q4407.38A, replicate 3): 248; ΔpEC50 (from the WT) ([3]; PTH1R Q4407.38A, replicate 3): -0.201; ΔpEC50±SEM [3]: -0.16±0.03; ΔpEC50 (from the WT) ([3]; replicate 1): -0.177; ΔpEC50 (from the WT) ([3]; replicate 2): -0.116; ΔpEC50 (from the WT) ([3]; replicate 3): -0.201; Span±SEM [3]: 297.80±37.90
